From patent US20240002374A1, “5-MEMBERED HETEROARYLAMINOSULFONAMIDES FOR TREATING CONDITIONS MEDIATED BY DEFICIENT CFTR ACTIVITY” (Genzyme Corporation, priority 2019, published 2024)

Target: T1, CFTR (primary human bronchial epithelial cells from a ΔF508 homozygous CF donor, CF-HBE cells) (Homo sapiens, UniProt P13569, DEL508-508)
T1 construct: Primary human bronchial epithelial cells from a ΔF508 homozygous CF donor; host or cells: primary human bronchial epithelial cells (CF-HBE) from a ΔF508 homozygous CF donor
Experiment: TECC24 recording of CFTR-mediated transepithelial chloride transport (TECC24 AUC fold over DMSO @ 3 μM)
Type: cell-based
Settings: 3 uM test agent; CF-HBE cells (ΔF508 homozygous) incubated 48 h; ratio of test agent AUC of forskolin-stimulated IEQ to vehicle (DMSO) AUC
Description: Example 510: TECC24 AUC Fold Over DMSO @ 3 μM
The effects of a test agent on CFTR-mediated transepithelial chloride transport was measured using TECC24 recording analysis. Test agents were solubilized in DMSO. Solubilized test agents were mixed with incubation medium containing DMEM/F12, Ultroser G (2%; Crescent Chemical, catalog #67042), Hyclone Fetal Clone H (2%; GE Healthcare, catalog #SH30066.02), bovine brain extract (0.25%; Lonza, catalog #CC-4098), insulin (2.5 μg/mL), IL-13 (10 ng/mL), hydrocortisone (20 nM), transferrin (2.5 μg/mL), triiodothyronine (500 nM), ethanolamine (250 nM), epinephrine (1.5 μM), phosphoethanolamine (250 nM), and retinoic acid (10 nM). Primary human bronchial epithelial cells from a ΔF508 homozygous CF donor (CF-HBE cells; from University of North Carolina Cystic Fibrosis Tissue Procurement Center), grown on Transwell HTS 24-well cell culture inserts (Costar, catalog #3378), were exposed to test agents or controls dissolved in incubation medium. The CF-HBE cells were cultured at 36.5° C. for 48 h before TECC24 recordings were performed in the presence or absence of test agent, a positive control or vehicle (DMSO).
Following incubation, the transwell cell culture inserts containing the test agent or control-treated CF-HBE cells were loaded onto a TECC24 apparatus (TECC v7 or MTECC v2; EP Design) to record the transepithelial voltage (VT) and resistance (TEER) using 4 AgCl electrodes per well configured in current-clamp mode. The apical and basolateral bath solutions both contained (in mM) 140 NaCl, 5 KCl, 2 CaCl2), 1 MgCl2, 10 Hepes, and 10 glucose (adjusted to pH 7.4 with NaOH) […]. To inhibit basal Na+ absorption, the ENaC inhibitor benzamil (10 μM) was added to the bath. Then, the adenylate cyclase activator, forskolin (10 μM), was added to the bath to activate CFTR. The forskolin-stimulated Cl− transport was halted by addition of bumetanide (20 μM), an inhibitor of the basolateral chloride co-transporter NKCC1, to the bath to confirm that the detected signal was chloride dependent. VT and TEER recordings were digitally acquired at routine intervals using TECC or MTECC software (EP Design). VT and TEER were transformed into equivalent transepithelial Cl− current (IEQ), and the Area Under the Curve (AUC) of the IEQ time course between forskolin and bumetanide addition is generated using Excel (Microsoft). Efficacy is expressed as the ratio of the test agent AUC divided by vehicle AUC. EC50s based on AUC are generated using the non-linear regression log(agonist) vs. response function in Prism software (GraphPad) with Hill Slope fixed=1.
If a test agent increased the AUC of the forskolin-stimulated IEQ relative to vehicle in CF-HBE cells, and this increase was inhibited by bumetanide, then the test agent was considered a CFTR corrector.

T1 sequence (P13569 with tags, fused parts or gaps DEL508-508): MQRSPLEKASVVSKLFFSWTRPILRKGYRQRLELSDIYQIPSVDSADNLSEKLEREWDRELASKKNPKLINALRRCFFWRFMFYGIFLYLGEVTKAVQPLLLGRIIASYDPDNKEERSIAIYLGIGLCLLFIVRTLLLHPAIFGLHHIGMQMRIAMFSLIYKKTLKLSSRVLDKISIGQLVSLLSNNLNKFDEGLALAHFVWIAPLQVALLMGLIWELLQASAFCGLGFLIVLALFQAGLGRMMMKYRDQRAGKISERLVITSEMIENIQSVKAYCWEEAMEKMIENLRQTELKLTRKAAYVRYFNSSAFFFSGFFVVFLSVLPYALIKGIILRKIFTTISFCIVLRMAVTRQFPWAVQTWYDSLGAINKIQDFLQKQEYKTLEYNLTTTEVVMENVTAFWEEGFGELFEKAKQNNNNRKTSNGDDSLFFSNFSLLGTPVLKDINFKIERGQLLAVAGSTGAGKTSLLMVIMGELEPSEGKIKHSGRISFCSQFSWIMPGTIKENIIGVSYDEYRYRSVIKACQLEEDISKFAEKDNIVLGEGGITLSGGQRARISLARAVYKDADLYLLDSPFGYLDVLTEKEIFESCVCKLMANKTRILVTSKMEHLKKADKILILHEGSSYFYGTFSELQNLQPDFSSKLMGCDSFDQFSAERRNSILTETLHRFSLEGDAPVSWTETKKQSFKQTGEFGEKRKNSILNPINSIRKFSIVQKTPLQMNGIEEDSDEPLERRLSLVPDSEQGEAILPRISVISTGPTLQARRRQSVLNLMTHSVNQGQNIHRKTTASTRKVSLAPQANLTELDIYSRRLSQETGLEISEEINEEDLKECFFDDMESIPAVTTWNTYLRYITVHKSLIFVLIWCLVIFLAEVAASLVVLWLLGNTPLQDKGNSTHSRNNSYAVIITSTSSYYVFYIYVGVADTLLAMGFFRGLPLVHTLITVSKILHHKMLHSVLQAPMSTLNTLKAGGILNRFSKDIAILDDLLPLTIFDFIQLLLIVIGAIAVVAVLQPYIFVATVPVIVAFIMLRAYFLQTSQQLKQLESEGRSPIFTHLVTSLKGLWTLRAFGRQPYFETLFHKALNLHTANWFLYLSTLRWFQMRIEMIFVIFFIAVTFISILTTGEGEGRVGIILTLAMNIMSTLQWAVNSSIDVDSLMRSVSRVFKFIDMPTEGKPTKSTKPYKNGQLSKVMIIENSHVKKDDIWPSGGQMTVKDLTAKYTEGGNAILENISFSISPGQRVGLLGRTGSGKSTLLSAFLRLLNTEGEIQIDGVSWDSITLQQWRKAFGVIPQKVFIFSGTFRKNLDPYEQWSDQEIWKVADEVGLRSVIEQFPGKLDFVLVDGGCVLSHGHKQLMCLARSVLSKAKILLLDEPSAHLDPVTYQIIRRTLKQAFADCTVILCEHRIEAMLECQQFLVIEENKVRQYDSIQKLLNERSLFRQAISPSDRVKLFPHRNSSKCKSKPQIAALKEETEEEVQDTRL

Row | SMILES | TECC AUC vs. DMSO @ 3 uM
1 | CC(C)c1ccccc1-c1nc(NS(=O)(=O)c2cccc(NC(C)C(F)(F)F)c2)sc1-n1ccc(OCC(C)(C)C(F)(F)F)n1 (stereo not shown) [Example 471, N-[4-(2-propan-2-ylphenyl)-5-[3-(3,3,3-trifluoro-2,2-dimethylpropoxy)pyrazol-1-yl]-1,3-thiazol-2-yl]-3-(1,1,1-trifluoropropan-2-ylamino)benzenesulfonamide] | B (“B” refers to AUC 2-5)
2 | Cc1cccc(C)c1-c1nc(NS(=O)(=O)c2cn(C)nc2C)sc1-c1cccc(OCC(C)(C)C(F)(F)F)c1 [Example 6, N-(4-(2,6-Dimethylphenyl)-5-(3-(3,3,3-trifluoro-2,2-dimethylpropoxy)phenyl)thiazol-2-yl)-1,3-dimethyl-1H-pyrazole-4-sulfonamide] | B (“B” refers to AUC 2-5)
3 | CC(C)c1ccccc1-c1nc(NS(=O)(=O)c2cccc(N)n2)sc1-c1cccc(OCCC(C)(C)C)c1 [Example 30, 6-Amino-N-(5-(3-(3,3-Dimethylbutoxy)phenyl)-4-(2-isopropylphenyl)thiazol-2-yl)pyridine-2-sulfonamide] | A (“A” refers to AUC > 5)
4 | CC(C)c1ccccc1-c1nc(NS(=O)(=O)c2cccc(N)c2F)sc1-c1cccc([C@@H]2CC[C@@H](OC(F)(F)F)C2)c1 [Example 48B2, 3-Amino-2-fluoro-N-(4-(2-isopropylphenyl)-5-(3-((1R,3R)-3-(trifluoromethoxy)cyclopentyl)phenyl)thiazol-2-yl)benzenesulfonamide] | B (“B” refers to AUC 2-5)
5 | Nc1cccc(S(=O)(=O)Nc2nc(-c3ccc(C(F)(F)F)cc3)c(-c3cc(F)cc(O[C@H]4CCC(OC(F)(F)F)C4)c3)s2)c1 (single isomer, unassigned) [Example 43A] | B (“B” refers to AUC 2-5)
6 | Cc1cccc(C(F)(F)F)c1-c1nc(NS(=O)(=O)c2cccc(N)n2)sc1-c1cc(F)cc(OCCC(C)(C)C)c1 [Example 312, 6-amino-N-[5-[3-(3,3-dimethylbutoxy)-5-fluorophenyl]-4-[2-methyl-6-(trifluoromethyl)phenyl]-1,3-thiazol-2-yl]pyridine-2-sulfonamide] | A (“A” refers to AUC > 5)
7 | Cc1cccc(C)c1-c1nc(NS(=O)(=O)c2cccc(C(F)F)c2)sc1-c1cccc(OCCC(C)(C)C)c1 [Example 22, 3-(Difluoromethyl)-N-(5-(3-(3,3-dimethylbutoxy)phenyl)-4-(2,6-dimethylphenyl)thiazol-2-yl)benzenesulfonamide] | A (“A” refers to AUC > 5)
8 | Cc1cccc(C)c1-c1nc(NS(=O)(=O)c2ccnc(N)c2)sc1-c1cc(F)cc(OCCC(C)(C)C)c1 [Example 32, 2-Amino-N-(5-(3-(3,3-dimethylbutoxy)-5-fluorophenyl)-4-(2,6-dimethylphenyl)thiazol-2-yl)pyridine-4-sulfonamide] | A (“A” refers to AUC > 5)
9 | Cc1nn(C)cc1S(=O)(=O)Nc1nc(-c2ccccc2C(C)C)c(-c2cccc([C@H]3CC[C@@H](OC(F)(F)F)C3)c2)s1 [Example 46A1, N-(4-(2-Isopropylphenyl)-5-(3-((1S,3R)-3-(trifluoromethoxy)cyclopentyl)phenyl)thiazol-2-yl)-1,3-dimethyl-1H-pyrazole-4-sulfonamide] | C (“C” refers to AUC < 2)
10 | Cc1cccc(C(F)(F)F)c1-c1nc(NS(=O)(=O)c2cccc(N)c2)sc1-c1cccc(OCCC(C)(C)C)c1 [Example 14, 3-Amino-N-(5-(3-(3,3-dimethylbutoxy)phenyl)-4-(2-methyl-6-(trifluoromethyl)phenyl)thiazol-2-yl)benzenesulfonamide] | A (“A” refers to AUC > 5)
11 | CC(C)c1ccccc1-c1nc(NS(=O)(=O)c2cc(N)ccc2F)sc1-c1ccc(F)c(OCC(F)(F)C(C)(C)C)c1 [Example 26, 5-Amino-N-(5-(3-(2,2-difluoro-3,3-dimethylbutoxy)-4-fluorophenyl)-4-(2-isopropylphenyl)thiazol-2-yl)-2-fluorobenzenesulfonamide] | A (“A” refers to AUC > 5)
12 | Cc1cccc(C)c1-c1nc(NS(=O)(=O)c2cccc(NC3CC(C)(O)C3)c2)sc1-c1cccc(OCC(C)(C)C(F)(F)F)c1 (stereo not shown) [Example 13, N-(4-(2,6-Dimethylphenyl)-5-(3-(3,3,3-trifluoro-2,2-dimethylpropoxy)phenyl)thiazol-2-yl)-3-((3-hydroxy-3-methylcyclobutyl)amino)benzenesulfonamide] | A (“A” refers to AUC > 5)
13 | Cc1cccc(C)c1-c1nc(NS(=O)(=O)c2ccc(F)c(N)c2)sc1-c1cc(F)cc(OCCC(C)(C)C)c1 [Example 42, 3-Amino-N-(5-(3-(3,3-dimethylbutoxy)-5-fluorophenyl)-4-(2,6-dimethylphenyl)thiazol-2-yl)-4-fluorobenzenesulfonamide] | B (“B” refers to AUC 2-5)
14 | CNc1ccc(F)c(S(=O)(=O)Nc2nc(-c3c(C)cccc3C(F)(F)F)c(-c3cccc(OCCC(C)(C)C)c3)s2)c1 [Example 389, N-[5-[3-(3,3-dimethylbutoxy)phenyl]-4-[2-methyl-6-(trifluoromethyl)phenyl]-1,3-thiazol-2-yl]-2-fluoro-5-(methylamino)benzenesulfonamide] | A (“A” refers to AUC > 5)
15 | Cc1cccc(C(F)(F)F)c1-c1nc(NS(=O)(=O)c2ccccc2)sc1-c1cc(F)cc(OCCC(C)(C)C)c1 [Example 2, N-(5-(3-(3,3-Dimethylbutoxy)-5-fluorophenyl)-4-(2-methyl-6-(trifluoromethyl)phenyl)thiazol-2-yl)benzenesulfonamide] | A (“A” refers to AUC > 5)
16 | Cc1cccc(C)c1-c1nc(NS(=O)(=O)c2cccc([S+](C)[O-])c2)sc1-c1cc(F)cc(OCCC(C)(C)C)c1 (stereo not shown) [Example 259, N-[5-[3-(3,3-dimethylbutoxy)-5-fluorophenyl]-4-(2,6-dimethylphenyl)-1,3-thiazol-2-yl]-3-methylsulfinylbenzenesulfonamide] | B (“B” refers to AUC 2-5)
17 | CC(C)c1ccccc1-c1nc(NS(=O)(=O)c2cccc(N[C@H](C)C(F)(F)F)c2)sc1-c1cccc(OCC(C)(C)C)c1 [Example 429, N-[5-[3-(2,2-dimethylpropoxy)phenyl]-4-(2-propan-2-ylphenyl)-1,3-thiazol-2-yl]-3-[[(2R)-1,1,1-trifluoropropan-2-yl]amino]benzenesulfonamide] | A (“A” refers to AUC > 5)
18 | CC(C)c1ccccc1-c1nc(NS(=O)(=O)c2ccnc(N)c2)sc1-c1cccc(OCCC(C)(C)C)c1 [Example 362, 2-amino-N-[5-[3-(3,3-dimethylbutoxy)phenyl]-4-(2-propan-2-ylphenyl)-1,3-thiazol-2-yl]pyridine-4-sulfonamide] | A (“A” refers to AUC > 5)
19 | Cc1cccc(C)c1-c1nc(NS(=O)(=O)c2ccsc2)sc1-c1cccc(OCC(C)(C)C)c1 [Example 41, N-(4-(2,6-Dimethylphenyl)-5-(3-(neopentyloxy)phenyl)thiazol-2-yl)thiophene-3-sulfonamide] | A (“A” refers to AUC > 5)
20 | Cc1cccc(C(F)(F)F)c1-c1nc(NS(=O)(=O)c2ccnc(N)c2)sc1-c1cc(F)cc(OCCC(C)(C)C)c1 [Example 15, 2-Amino-N-(5-(3-(3,3-dimethylbutoxy)-5-fluorophenyl)-4-(2-methyl-6-(trifluoromethyl)phenyl)thiazol-2-yl)pyridine-4-sulfonamide] | A (“A” refers to AUC > 5)
21 | CC(C)Oc1ccccc1-c1nc(NS(=O)(=O)c2ccccc2)sc1-c1cccc(OCC(C)(C)C)c1 [Example 4, N-(4-(2-Isopropoxyphenyl)-5-(3-(neopentyloxy)phenyl)thiazol-2-yl)benzenesulfonamide] | B (“B” refers to AUC 2-5)
22 | CC(C)c1ccccc1-c1nc(NS(=O)(=O)c2cccc(N)c2)sc1-c1cccc(OCCC(C)(C)C)c1 [Example 18, 3-Amino-N-(5-(3-(3,3-dimethylbutoxy)phenyl)-4-(2-isopropylphenyl)thiazol-2-yl)benzenesulfonamide] | A (“A” refers to AUC > 5)
